According to patent US20210060033A1, “ORALLY ADMINISTERED COMBINATIONS OF BETA-LACTAM ANTIBIOTICS AND AVIBACTAM DERIVATIVES FOR TREATING BACTERIAL INFECTIONS” (priority 2019, published 2021):
Read-outs that look alike come from different tables or passages of the source.

How the values were obtained:
[1] = in vivo; cited from earlier work
[2] = dog, in vivo; cited from earlier work
[3] = cynomolgus monkey, in vivo; cited from earlier work
[4] = rat, in vivo, po; cited from earlier work
[5] = tested on: 314 Enterobacteriaceae; assay type: cell-based; conditions: for MIC90 with addition of avibactam: all isolates combined, avibactam at a fixed concentration of 4 μg/mL; for Estimated MIC90: Enterobacteria n = 314 (all isolates combined), avibactam or clavulanic acid fixed at 4 μg/mL in combinations
[6] = tested on: ESBL-positive isolates (n = 28); assay type: cell-based, Enterobacteriaceae; conditions: ESBL n = 28; avibactam or clavulanic acid fixed at 4 μg/mL in combinations
[7] = tested on: OXA-positive isolates (n = 22); assay type: cell-based, Enterobacteriaceae; conditions: for Estimated MIC90: OXA n = 22, avibactam or clavulanic acid fixed at 4 μg/mL in combinations; for MIC90 with addition of avibactam: OXA-positive isolates, avibactam 4 μg/mL
[8] = tested on: KPC-positive isolates (n = 23); assay type: cell-based, Enterobacteriaceae; conditions: for Estimated MIC90: KPC n = 23, avibactam or clavulanic acid fixed at 4 μg/mL in combinations; for MIC90 with addition of avibactam: KPC-positive isolates, avibactam 4 μg/mL
[9] = tested on: pAmpC (PlasAmpC) isolates (n = 20); assay type: cell-based, Enterobacteriaceae; conditions: pAmpC n = 20; avibactam or clavulanic acid fixed at 4 μg/mL in combinations
[10] = Oral administration of avibactam derivative (3) to healthy human volunteers (Example 2), plasma avibactam; assay type: in vivo; conditions: for AUC0-INF: unit not given
Description: The pharmacokinetics of avibactam provided as an orally administered avibactam derivative was determined on healthy human volunteers.
[…] The plasma concentration of avibactam was measured. The free avibactam concentration was adjusted for from 5% to 8% protein binding (AUCfree=AUC0-inf×[…]).

[11] = Single ascending oral dose phase 1 study of avibactam derivative (3) (Example 3), avibactam PK; assay type: in vivo, human; conditions: avibactam in plasma, fed
Description: The pharmacokinetics of avibactam provided as an orally administered avibactam derivative was determined on healthy human volunteers. A randomized, double-blind, placebo-controlled single ascending dose phase 1 study was undertaken with healthy male and female adults. […] Plasma and urine PK samples were collected prior to dosing and at frequent intervals after dosing. […] FIG. 12 also provides an overall estimate of F for the study population (n=24) presented as a conventional box-whisker graphic (median, interquartile range [25-75%] and Tukey whiskers).

[12] = avibactam, oral 300 mg of avibactam derivative (3), healthy

## CC(C)(COS(=O)(=O)ON1C(=O)N2C[C@H]1CC[C@H]2C(N)=O)C(=O)OCc1ccccc1 [avibactam derivative (4), benzyl 3-(((((1R,2S,5R)-2-carbamoyl-7-oxo-1,6-diazabicyclo[3.2.1]octan-6-yl)oxy)sulfonyl)oxy)-2,2-dimethylpropanoate]
[1]
  oral bioavailability (% F): greater than 10 % F

## COC(=O)C(C)(C)COS(=O)(=O)ON1C(=O)N2C[C@H]1CC[C@H]2C(N)=O [avibactam derivative (10), methyl 3-(((((1R,2S,5R)-2-carbamoyl-7-oxo-1,6-diazabicyclo[3.2.1]octan-6-yl)oxy)sulfonyl)oxy)-2,2-dimethylpropanoate]
[1]
  oral bioavailability (% F): greater than 10 % F

## CC(C)OC(=O)C(C)(C)COS(=O)(=O)ON1C(=O)N2C[C@H]1CC[C@H]2C(N)=O [avibactam derivative (11), isopropyl 3-(((((1R,2S,5R)-2-carbamoyl-7-oxo-1,6-diazabicyclo[3.2.1]octan-6-yl)oxy)sulfonyl)oxy)-2,2-dimethylpropanoate]
[1]
  oral bioavailability (% F): greater than 10 % F

## CCCCCCOC(=O)C(C)(C)COS(=O)(=O)ON1C(=O)N2C[C@H]1CC[C@H]2C(N)=O [avibactam derivative (12), hexyl 3-(((((1R,2S,5R)-2-carbamoyl-7-oxo-1,6-diazabicyclo[3.2.1]octan-6-yl)oxy)sulfonyl)oxy)-2,2-dimethylpropanoate]
[1]
  oral bioavailability (% F): greater than 10 % F

## CCCCCCCOC(=O)C(C)(C)COS(=O)(=O)ON1C(=O)N2C[C@H]1CC[C@H]2C(N)=O [avibactam derivative (13), heptyl 3-(((((1R,2S,5R)-2-carbamoyl-7-oxo-1,6-diazabicyclo[3.2.1]octan-6-yl)oxy)sulfonyl)oxy)-2,2-dimethylpropanoate]
[1]
  oral bioavailability (% F): greater than 10 % F
[2]
  avibactam oral bioavailability: greater than 50 % F
[3]
  avibactam oral bioavailability: greater than 50 % F

## CC(C)(C)OC(=O)C(C)(C)COS(=O)(=O)ON1C(=O)N2C[C@H]1CC[C@H]2C(N)=O [avibactam derivative (14), tert-butyl 3-(((((1R,2S,5R)-2-carbamoyl-7-oxo-1,6-diazabicyclo[3.2.1]octan-6-yl)oxy)sulfonyl)oxy)-2,2-dimethylpropanoate]
[1]
  oral bioavailability (% F): greater than 10 % F

## CCCCCCOC(=O)CCC(C)(C)COS(=O)(=O)ON1C(=O)N2C[C@H]1CC[C@H]2C(N)=O [avibactam derivative (36), hexyl 5-(((((1R,2S,5R)-2-carbamoyl-7-oxo-1,6-diazabicyclo[3.2.1]octan-6-yl)oxy)sulfonyl)oxy)-4,4-dimethylpentanoate]
[4]
  avibactam oral bioavailability (% F): greater than 10 % F

## CCCCCCCOC(=O)CCC(C)(C)COS(=O)(=O)ON1C(=O)N2C[C@H]1CC[C@H]2C(N)=O [avibactam derivative (37), heptyl 5-(((((1R,2S,5R)-2-carbamoyl-7-oxo-1,6-diazabicyclo[3.2.1]octan-6-yl)oxy)sulfonyl)oxy)-4,4-dimethylpentanoate]
[4]
  avibactam oral bioavailability (% F): greater than 10 % F

## CCCOC(=O)C(C)(C)COS(=O)(=O)ON1C(=O)N2C[C@H]1CC[C@H]2C(N)=O [avibactam derivative (57), propyl 3-(((((1R,2S,5R)-2-carbamoyl-7-oxo-1,6-diazabicyclo[3.2.1]octan-6-yl)oxy)sulfonyl)oxy)-2,2-dimethylpropanoate]
[4]
  avibactam oral bioavailability (% F): greater than 10 % F

## CCCCOC(=O)C(C)(C)COS(=O)(=O)ON1C(=O)N2C[C@H]1CC[C@H]2C(N)=O [avibactam derivative (58), butyl 3-(((((1R,2S,5R)-2-carbamoyl-7-oxo-1,6-diazabicyclo[3.2.1]octan-6-yl)oxy)sulfonyl)oxy)-2,2-dimethylpropanoate]
[4]
  avibactam oral bioavailability (% F): greater than 10 % F

## C[C@H]1[C@H](NC(=O)/C(=N\OC(C)(C)C(=O)O)c2csc(N)n2)C(=O)N1S(=O)(=O)O [aztreonam]
[5]
  MIC90 with addition of avibactam: 0.5 µg/mL

## C=CC1=C(C(=O)O)N2C(=O)[C@@H](NC(=O)/C(=N\OCC(=O)O)c3csc(N)n3)[C@H]2SC1 [cefixime]
[5]
  MIC90 with addition of avibactam: 1 µg/mL

## COCC1=C(C(=O)O)N2C(=O)[C@@H](NC(=O)/C(=N\OC)c3csc(N)n3)[C@H]2SC1 [cefpodoxime]
[6]
  Estimated MIC90: >32 µg/mL
[7]
  Estimated MIC90: >32 µg/mL
[8]
  Estimated MIC90: >32 µg/mL
[9]
  Estimated MIC90: >32 µg/mL
[5]
  Estimated MIC90: >32 µg/mL
  MIC90 with addition of avibactam: 4 µg/mL

## C[C@@H](O)[C@H]1C(=O)N2C(C(=O)O)=C(S[C@H]3CC[S@@+]([O-])C3)S[C@H]12 [sulopenem]
[6]
  Estimated MIC90: 0.12 µg/mL
[7]
  Estimated MIC90: >32 µg/mL
  MIC90 with addition of avibactam: 1 µg/mL
[8]
  Estimated MIC90: >32 µg/mL
  MIC90 with addition of avibactam: 1 µg/mL
[9]
  Estimated MIC90: 0.5 µg/mL
[5]
  Estimated MIC90: 8 µg/mL
  MIC90 with addition of avibactam: 0.25 µg/mL

## C[C@@H](O)[C@H]1C(=O)N2C(C(=O)O)=C(SC3CN(C4=NCCS4)C3)[C@H](C)[C@H]12 [tebipenem]
[6]
  Estimated MIC90: 0.12 µg/mL
[7]
  Estimated MIC90: >32 µg/mL
  MIC90 with addition of avibactam: 1 µg/mL
[8]
  Estimated MIC90: >32 µg/mL
  MIC90 with addition of avibactam: 1 µg/mL
[9]
  Estimated MIC90: 0.25 µg/mL
[5]
  Estimated MIC90: 2 µg/mL
  MIC90 with addition of avibactam: 0.25 µg/mL

## ethyl 3-(((((1R,2S,5R)-2-carbamoyl-7-oxo-1,6-diazabicyclo[3.2.1]octan-6-yl)oxy)sulfonyl)oxy)-2,2-dimethylpropanoate [avibactam derivative (3)]
[10]; First Quartile, avibactam
  AUC0-INF: 5.9
[10]; Max, avibactam
  AUC0-INF: 10.9
[10]; Mean, avibactam
  AUC0-INF: 7.6
[10]; Min, avibactam
  AUC0-INF: 3.1
[10]; ThirdQuartile, avibactam
  AUC0-INF: 10.1
[10]; [12]
  AUCinf: about 7,600 ng×h/mL
  T1/2: about 1.5 hours
[10]; oral 600 mg of avibactam derivative (3), healthy
  T1/2: about 1.5 hours
[10]; orally administered dose not given
  dose of IV avibactam approximated by the oral dose: ~400 mg
[10]; orally administered dose of 300 mg
  dose of IV avibactam approximated by the oral dose: ~62.5 mg
[11]; single oral dose 300 mg
  Thalf: 1.51 (0.24) h
[11]; single oral dose 900 mg
  Thalf: 2.65 (0.46) h
[11]; single oral dose 1,350 mg
  Thalf: 2.33 (0.18) h
[1]
  oral bioavailability (% F): greater than 10 % F
[2]
  avibactam oral bioavailability: greater than 50 % F
[3]
  avibactam oral bioavailability: greater than 50 % F
